In patent publication US20250049819A1, “METHODS FOR TREATING AND PREVENTING C. DIFFICILE INFECTION” (Paratek Pharmaceuticals, Inc., priority 2016, published 2025):
≈ marks a conversion by molar mass, not a printed value.

How the values were obtained:
[1] = system: C. difficile strains (N = 27); test: MIC by broth microdilution against C. difficile clinical isolates; type: cell-based; conditions: Clostridioides difficile, 27 isolates
Protocol: (§1) The activity of omadacycline was tested in vitro against 27 clinical isolates of C. difficile. […] The experiments were carried out using broth and agar microdilution methods according to Clinical and Laboratory Standards Institute (CLSI) guidelines. […] Each test was run in duplicate.

[2] = system: C. difficile strains (N = 27); test: MIC by agar dilution against C. difficile clinical isolates; type: cell-based; conditions: Clostridioides difficile, 27 isolates
Protocol: as §1

[3] = system: C. difficile strain ATCC 43596; test: Hamster model of C. difficile-associated diarrhea, survival; type: in vivo
[4] = system: C. difficile PCR ribotype 027 strain 210; test: In vitro human gut model, C. difficile germination, proliferation and toxin production (Example 3); type: cell-based; conditions: 430 mg/L once daily for 7 days
Excerpt: An in vitro gut model was used to study the effects of omadacycline instillation on both normal microflora populations and C. difficile. This gut model has been validated against gut contents from sudden death victims and provides a very close simulation of bacterial activities and composition in different areas of the hindgut (Macfarlane et al., Microb. Ecol. 35, 180-7, 1998). The model consists of three vessels aligned in series, and top-fed with a complex growth medium. All three vessels are continuously stirred, anaerobically maintained at 37° C. and regulated to reflect in vivo differences, including pH, from proximal to distal colon. The three anaerobic fermentation vessels are maintained at increasing alkalinity (from pH 5.5±0.2 for vessel 1; pH 6.2±0.2 for vessel 2; and pH 6.8±0.2 for vessel 3). The increasing alkalinity in combination with the nutrient limited conditions are designed to simulate the human gut from the proximal to the distal colon. […] At this stage, dietary ingredients, prebiotics, pathogens and/or antibiotics may be added, and the bacterial populations monitored. Specific components of the gut flora and relevant pathogens may be closely monitored and their behavior analyzed. […]
Gut microbiota bacterial populations and C. difficile total viable counts and spore counts were enumerated daily by culture on selective and non-selective agars. C. difficile populations were monitored in all three vessels, and all other bacterial groups (total obligate anaerobes, total facultative anaerobes, lactose fermenting enterobacteriaceae, enterococci, total clostridia, lactobacilli, bifidobacteria, B. fragilis group) were monitored in vessels 2 and 3 only. […] C. difficile total viable counts and spores counts were monitored using viable counting and a differential alcohol shock viable count on selective agars.
From day 14 onwards C. difficile cytotoxin was measured using a quantitative VERO cell cytotoxicity assay. […] Concentrations of omadacyline were measured by large-plate bioassay using Wilkins Chalgren agar with Kocuria rhizophila as the indicator organism.

[5] = system: C. difficile PCR ribotype 027 strain 210; test: In vitro human gut model, C. difficile germination, proliferation and toxin production (Example 4); type: cell-based
Protocol: The gut model was inoculated with pooled fecal slurry (5 volunteers ≥60 years of age with no history of antibiotic therapy in the previous 3 months) and left for 2 weeks to allow the bacterial populations to achieve steady state. A single inoculum (˜10^7 cfu/mL) of C. difficile spores (PCR ribotype 027 strain 210) was added into vessel 1 of the gut model on day 14. One week later, on day 21, a second aliquot of C. difficile spores was added, and antibiotic instillation commenced. Model A (LHS) was exposed to moxifloxacin (43 mg/L, once daily, for 7 days) and Model B (RHS) was exposed to omadacycline (430 mg/L, once daily, for 7 days) commenced on day 21.
Bacterial populations in the gut model were monitored using selective agars to count viable bacterial colonies. Populations were monitored every other day for the first 2 weeks until the steady state was reached, and daily thereafter. C. difficile populations were monitored in all three vessels, and all other bacterial groups (total obligate anaerobes, total facultative anaerobes, lactose fermenting Enterobacteriaceae, Enterococci, total Clostridia, Lactobacilli, Bifidobacteria and B. fragilis group) were monitored in vessels 2 and 3 only. Vessel 3, which represents the distal colon, is of most physiological relevance in terms of propensity to induce CDI. C. difficile total viable counts and spores counts were monitored using viable counting and a differential alcohol shock viable count on selective agars. From day 14 onwards C. difficile cytotoxin was measured using a quantitative VERO cell cytotoxicity assay. Samples of 1 mL each were centrifuged at 16,000×g for 15 minutes, and the supernatants were removed. Six 1:10 serial dilutions (to 10^−6) of culture supernatants from the gut model were prepared. Twenty microliters of the appropriate dilution was added to VERO cell monolayers and a further 20 μL of C. sordellii antitoxin (diluted 1:10 in sterile distilled water) was placed in the corresponding antitoxin row. Monolayers were examined after 24 and 48 hours of incubation in 5% CO2, with a positive result indicated by the presence of cell rounding with concurrent neutralization of the effect by C. sordellii antitoxin. Cytotoxin titers (relative units, RU) were an arbitrary log10 scale, and the cytotoxin titer is reported in the highest dilution with >70% cell rounding, i.e. 10^0=1 RU, 10^−1=2 RU, 10^−2=3 RU. Samples were taken daily from day 21 onwards to determine antimicrobial concentrations in the gut model vessels by a bioassay. Concentrations of moxifloxacin were determined using Isosensitest agar with Escherichia coli as the indicator organism. Concentrations of omadacyline were determined using Wilkins Chalgren agar with Kocuria rhizophila as the indicator organism.

[6] = oral 50 mg/kg/day for 5 days, N=10

CN(C)c1cc(CNCC(C)(C)C)c(O)c2c1C[C@H]1C[C@H]3[C@H](N(C)C)C(O)=C(C(N)=O)C(=O)[C@@]3(O)C(O)=C1C2=O (stereo in doubt) [Omadacycline]
MIC90 ([1]; read-out: MIC90 by broth dilution): 0.06 µg/mL (≈ 0.108 µM) | MIC50 ([1]; Wilkins-Chalgren broth, 48 hours anaerobic): 60 µg/mL (≈ 108 µM) | MIC90 ([1]; Wilkins-Chalgren broth, 48 hours anaerobic, read-out: Broth Microdilution MIC90): 60 µg/mL (≈ 108 µM) | MIC90 [2]: 0.12 µg/mL (≈ 0.216 µM) | percent survival at day 2 post infection ([3]; oral 50 mg/kg/day for 5 days (clindamycin: 10 mg/kg SC pre-treatment only), N=10): 100% | Median Survival ([3]; oral 50 mg/kg/day for 5 days (clindamycin: pre-treatment only), followed up to 21 days): 12 days | percent survival by day 3 [3, 6]: 60% | percent survival on day 13 [3, 6]: 40% | percent survival on day 16 [3, 6]: 0% | C. difficile vegetative cell proliferation ([4]; all three vessels): no vegetative cell proliferation observed | signs of simulated C. difficile infection ([4]; all three vessels): did not lead to any signs of simulated C. difficile infection | C. difficile toxin detection (VERO cell cytotoxicity assay) ([4]; any vessels): No toxin was detected | C. difficile spore germination / vegetative cell proliferation ([5]; all three vessels): no vegetative cell proliferation observed | C. difficile toxin detection (VERO cell cytotoxicity assay) ([5]; all vessels): No toxin was detected | signs of simulated CDI ([5]; once daily for 7 days, omadacycline 430 mg/L, moxifloxacin 43 mg/L): did not lead to any signs of simulated CDI
